Measurements reported in PubChem BioAssay AID1996.
≈ marks a conversion by molar mass, not a printed value.

conditions: buffer; pH 7.4; 200.0 µM

Row | Structure (SMILES) | solubility kinetic
1 | Cc1cc(Br)ccc1N=C1NC(=O)CS1 | > 42.8 µg/mL
2 | CC(=O)Nc1ccc2c(c1)CCCC2 | > 28.4 µg/mL
3 | Cc1ccc(S(=O)(=O)Nc2ccc(S(=O)(=O)Nc3nccs3)cc2)cc1C | > 63.5 µg/mL
4 | COc1cccc(-c2nc(-c3cccs3)no2)c1 | < 0.3 µg/mL
5 | Cc1cccc(NC(=S)NC23CN4CN(CN(C4)C2)C3)c1C | 46.8 µg/mL (≈ 147 µM)
6 | CC(=O)C1=C(O)CC(C)(C)CC1=NCc1nc2ccccc2[nH]1 | > 46.7 µg/mL
7 | COC(=O)[C@@H](C)NC(=O)c1ccc2oc(CCc3ccccc3)nc2c1 | 41 µg/mL (≈ 116 µM)
8 | CSc1ncccc1C(=O)OCC(=O)Nc1ccc(C)c(S(=O)(=O)N2CCOCC2)c1 | 21 µg/mL (≈ 45.1 µM)
9 | Cc1nc(-c2ccc(NC(=O)c3ccco3)cc2)cs1 | 18.2 µg/mL (≈ 64 µM)
10 | N#C/C=C(/c1ccc(F)cc1)N1CCOCC1 | > 34.8 µg/mL
11 | OCCN=C1CCCc2c1[nH]c1ccc(Cl)cc21 | 12.3 µg/mL (≈ 46.8 µM)
12 | COc1cc(Br)ccc1NC(=O)c1ccccc1-c1ccccc1C(=O)O | 53.3 µg/mL (≈ 125 µM)
13 | CCn1c(O)c(C=NCCN2CCOCC2)c(=O)[nH]c1=S | > 46.9 µg/mL
14 | Cc1ccccc1OCC(=O)Nc1ccc(N2CCN(C)CC2)c(Cl)c1 | 12.3 µg/mL (≈ 32.9 µM)
15 | Cn1cc(C=O)c2cc(F)ccc21 | > 26.6 µg/mL
16 | O=C(Nc1cc([N+](=O)[O-])ccc1N1CCCC1)c1cccs1 | 4.1 µg/mL (≈ 12.9 µM)
17 | Cc1cc(C)c(S(=O)(=O)c2ccccc2C(C)C)c(=O)[nH]1 | 7.2 µg/mL (≈ 23.6 µM)
18 | CCC(=O)Nc1ccc2c(c1)nc(CCNC(=O)c1ccco1)n2C | > 51.1 µg/mL
19 | CC(=O)c1c(C)[nH]c(=S)c(C#N)c1-c1ccc(F)cc1 | > 42.9 µg/mL
20 | Cc1ccccc1N1CCN(C(=O)NCc2cccc(Cl)c2)CC1 | 3.3 µg/mL (≈ 9.6 µM)
21 | Clc1ccc(N2CCN(Cc3ccco3)CC2)cc1 | 22.5 µg/mL (≈ 81.3 µM)
22 | CCOC(=O)c1c(CC(C)C)csc1N | 2.1 µg/mL (≈ 9.24 µM)
23 | CCC(NC(=O)c1ccccc1NC(=O)C(C)(C)C)C(=O)N1CC(C)OC(C)C1 (centres undefined) | > 60.5 µg/mL
24 | COc1cc(OC)cc(C(=O)Nc2ccc3c(c2)OCCO3)c1 | 44.8 µg/mL (≈ 142 µM)

Row | Structure (SMILES) | solubility kinetic
25 | COc1ccc(CNC(=O)C(Cc2ccccc2)n2cccc2)cc1 (centres undefined) | 7.8 µg/mL (≈ 23.3 µM)
26 | CC(=O)N1CCN(Cc2nc(-c3cccc(Cl)c3)no2)CC1 | > 48.1 µg/mL
27 | O=c1[nH]c2ccccc2c(O)c1-[n+]1ccccc1.[Cl-] | 40.5 µg/mL
28 | O=C1C2C3C=CC(CC3)C2C(=O)N1/N=C/c1ccco1 (centres undefined) | > 40.5 µg/mL
29 | O=C(O)C(=O)O.O=C(c1ccco1)N1CCN(Cc2ccccc2F)CC1 | 33.9 µg/mL
30 | COc1ccc(S(=O)(=O)N2CCOCC2)cc1NC(=O)CN1CCCc2ccccc21 | 2.9 µg/mL (≈ 6.51 µM)
31 | COc1cc(NC(=O)COC(C)=O)cc(OC)c1OC | 39 µg/mL (≈ 138 µM)
32 | COc1ccc([N+](=O)[O-])cc1NC(=O)CCC(=O)c1cccs1 | 3.8 µg/mL (≈ 11.4 µM)
33 | CN1CCN(c2ccc(C(F)(F)F)cc2NC(=O)c2ccco2)CC1 | > 53 µg/mL
34 | CCOC(=O)C1(Cc2ccccc2)CCCN(C(=O)C=C(C)C)C1 (centres undefined) | 46.8 µg/mL (≈ 142 µM)
35 | CCOc1cc(/C=C\c2nc(O)c([N+](=O)[O-])c(=O)[nH]2)ccc1OC(C)C | > 54.2 µg/mL
36 | Cc1nc(NC(=O)/C=C/c2ccccc2)sc1C(=O)NCCO | 12.9 µg/mL (≈ 38.9 µM)
37 | COc1ccc(-c2csc(N3CCSCC3)n2)cc1 | 0.3 µg/mL (≈ 1.03 µM)
38 | Cc1ccc(C(=O)Nc2nc(-c3ccc(F)cc3)cs2)o1 | 4.4 µg/mL (≈ 14.6 µM)
39 | CN(Cc1nc2ccccc2c(=O)[nH]1)C(=O)c1cccc(NC(=O)c2cccs2)c1 | > 62.8 µg/mL
40 | COC(=O)c1sc(C(C)(C)C)cc1CS(=O)(=O)c1ccccn1 | 45.2 µg/mL (≈ 128 µM)
41 | COc1ccccc1NC(=O)CC(=O)c1ccccc1 | > 40.4 µg/mL
42 | Cc1nc2ccc(Br)cc2c2c1CC(CBr)O2 (centres undefined) | 2.2 µg/mL (≈ 6.16 µM)
43 | Cc1csc(NC(=O)c2cccnc2)n1 | 32.5 µg/mL (≈ 148 µM)
44 | CN1C(=O)N(c2nnc(C(C)(C)C)s2)C(=O)C1c1ccccc1 (centres undefined) | > 49.6 µg/mL
45 | Nc1ccc(C(=O)Nc2ccccc2N)cc1 | > 34.1 µg/mL
46 | O=C(c1cc2cc(F)ccc2[nH]1)N1CCN(c2cccc(Cl)c2)CC1 | 0.5 µg/mL (≈ 1.4 µM)
47 | COc1ccccc1/C=[N+](\[O-])C1SC(=S)N(C)C1(C)C (centres undefined) | > 46.6 µg/mL
48 | Cc1ccc(NC(=S)N2CCCCC2CO)cc1C (centres undefined) | > 41.8 µg/mL

Row | Structure (SMILES) | solubility kinetic
49 | Cc1cc(/C=C2\NC(=O)NC2=O)c(C)n1-c1cccnc1 | 40.2 µg/mL (≈ 142 µM)
50 | CCc1ccc(OCC(=O)Nc2ccc3oc(=O)ccc3c2)cc1 | 1.5 µg/mL (≈ 4.64 µM)
51 | Cc1nc(NCCc2ccccc2)sc1C(=O)O | 38.7 µg/mL (≈ 148 µM)
52 | CCNC(=S)NCCC1=c2ccccc2=N/C1=C\c1c(O)n(C)c(=O)n(C)c1=O | 19.3 µg/mL (≈ 46.7 µM)
53 | Cc1cc(-c2nnc(CCC(=O)NCc3ccc(F)c(F)c3)o2)no1 | > 52.2 µg/mL
54 | Clc1cc(/C=N\NC2=NCCN2)cc(Cl)n1 | > 38.7 µg/mL
55 | Cc1cccc(C)c1NC(=O)c1ccc2c(c1)CCN2S(C)(=O)=O | 8.3 µg/mL (≈ 24.1 µM)
56 | COc1cc2c(cc1OC)C(c1c(Cl)cccc1Cl)NC(=O)C2 (centres undefined) | > 52.8 µg/mL
57 | Cc1ccc(C(=O)NCc2ccc3c(c2)OCO3)cc1C | 31.7 µg/mL (≈ 112 µM)
58 | N#Cc1c(N2CCNCC2)nc(-c2ccco2)c2c1CCCC2 | > 46.3 µg/mL
59 | O=C(O)[C@H](Cc1ccccc1)Nc1ccc([N+](=O)[O-])cn1 | > 43.1 µg/mL
60 | CCc1cccc(NS(=O)(=O)c2ccc3c(c2)NC(=O)CC(=O)N3)c1 | > 53.9 µg/mL
61 | O=C(Nc1ccccc1)OCCCc1ccccc1 | 9.7 µg/mL (≈ 38 µM)
62 | Cc1ccccc1Nc1nc(N)nc(COC(=O)c2ccco2)n1 | > 48.8 µg/mL
63 | OC(CN1CCC(Cc2ccccc2)CC1)C(F)(F)F (centres undefined) | > 43.1 µg/mL
64 | CCC(=O)Nc1ccc(NC(=O)c2ccc3ccccc3c2)cc1 | < 0.3 µg/mL
65 | Cc1ccc(N2CC(C(=O)Nc3cccnc3)CC2=O)cc1Cl (centres undefined) | 45.8 µg/mL (≈ 139 µM)
66 | O=C(NCc1cccs1)C1CC(=O)N(Cc2ccccc2)C1 (centres undefined) | > 47.2 µg/mL
67 | Cc1ccc(S(=O)(=O)N2CCC[C@H]2C(=O)Nc2ccc(F)cc2C)cc1 | > 56.5 µg/mL
68 | COc1cccc(OC)c1OCCNCC1COc2ccccc2O1.Cl (centres undefined) | > 57.3 µg/mL
69 | C=CCN(Cc1cccs1)C(=O)COc1ccc2c(c1)OCO2 | > 49.7 µg/mL
70 | CN(C)C(=O)N1CCN(c2nc(-c3ccccc3)cs2)CC1 | 40.3 µg/mL (≈ 127 µM)
71 | CSc1ccccc1C(=O)N(C)C(c1ccccc1)c1ccccc1 | 10.6 µg/mL (≈ 30.5 µM)
72 | O=C(NCc1cccnc1)Nc1cccc(Cl)c1 | 37.2 µg/mL (≈ 142 µM)

Row | Structure (SMILES) | solubility kinetic
73 | CC(C)N1CCN(Cc2c[nH]c3ccccc23)CC1CCO (centres undefined) | 32.8 µg/mL (≈ 109 µM)
74 | COc1ccccc1-n1c(O)c(/C=C2\C=Nc3ccccc32)c(=O)[nH]c1=O | 4.4 µg/mL (≈ 12.2 µM)
75 | Cc1ccccc1N=Cc1cccc(O)c1O | 20.9 µg/mL (≈ 92 µM)
76 | COCCNC(=O)c1cc(C(=O)CC(C)C)c[nH]1 | > 37.8 µg/mL
77 | CN(C)CCCNC(=O)N1c2ccccc2Sc2ccccc21 | > 49.1 µg/mL
78 | O=C(NCCc1ccc(F)cc1)c1ccc([N+](=O)[O-])cc1 | 4.6 µg/mL (≈ 16 µM)
79 | CC(=O)c1sc(-c2ccccc2)cc1N | 28.4 µg/mL (≈ 131 µM)
80 | N/C(=N\O)c1ccc([N+](=O)[O-])s1 | > 28.1 µg/mL
81 | Cc1c(C)n(-c2ccc(Cl)cc2)c2ncnc(N)c12 | 7.4 µg/mL (≈ 27.1 µM)
82 | Cc1ccc(C(=O)NC2=NCCS2)cc1 | 32.9 µg/mL (≈ 149 µM)
83 | Cc1nc(SCc2cccnc2)[nH]c(=O)c1C | > 37.1 µg/mL
84 | Cc1cccc(NC(=O)Cn2cc(C(=O)C3CC3)c3ccccc32)c1C | 0.6 µg/mL (≈ 1.73 µM)
85 | CCc1cccc(NS(=O)(=O)c2cccc3cccnc23)c1 | 1 µg/mL (≈ 3.2 µM)
86 | COc1ccc(CNc2ncnc3sccc23)cc1 | > 40.7 µg/mL
87 | Cn1c(CO)nc2c3ccccc3ccc21 | > 31.8 µg/mL
88 | CCOC(=O)c1ccc(Oc2cc(C)nc(Cl)n2)cc1 | > 43.9 µg/mL
89 | COC(C(=O)Nc1ccc(Br)cc1F)c1ccccc1 (centres undefined) | 26.1 µg/mL (≈ 77.2 µM)
90 | O=C(O)c1ccccc1C(=O)NC1Cc2ccccc2C1 | 42.1 µg/mL (≈ 150 µM)
91 | COc1cc(NC(=O)COC(=O)CCc2nc3ccccc3c(=O)[nH]2)cc(OC)c1 | 60.7 µg/mL (≈ 148 µM)
92 | CC(=O)CSc1ccc(-c2nc3ccccc3[nH]2)cn1 | > 42.5 µg/mL
93 | OC(CCN1CCC2(CC1)OCCO2)C(F)(F)F (centres undefined) | > 40.4 µg/mL
94 | C[C@H](NC(=O)N1CCn2c1nc1ccccc12)C(=O)NC1CC1 | > 47 µg/mL
95 | C/C(CC1CC(C)(C)OC1=O)=N\NC(N)=S (centres undefined) | > 36.5 µg/mL
96 | CCCC/C(=N/O)c1c(C)[nH]c2ccccc12 | 30.7 µg/mL (≈ 133 µM)

Row | Structure (SMILES) | solubility kinetic
97 | O=C(CN1C(=O)COc2ccc(Cl)cc21)NCC1CCCO1 (centres undefined) | > 48.7 µg/mL
98 | Cc1ccc2[nH]c(C(=O)NCCN3CCCC3)cc2c1.Cl | > 46.2 µg/mL
99 | COc1ccc(-c2cc(CS(=O)(=O)c3ccccc3)on2)cc1 | 0.7 µg/mL (≈ 2.13 µM)
100 | O=C(COC(=O)c1ccc(S(=O)(=O)N2CCOCC2)cc1)Nc1ccccc1OC(F)F | 4.8 µg/mL (≈ 10.2 µM)
101 | O=[N+]([O-])c1ccc(N2CCSCC2)cc1O | 4.1 µg/mL (≈ 17.1 µM)
102 | CCOc1ncccc1C(=O)NCCc1ccc(OC)cc1 | > 45.1 µg/mL
103 | CN(C)S(=O)(=O)c1cccc(NC(=O)COc2ccc(S(=O)(=O)N3CCOCC3)cc2Cl)c1 | 5.4 µg/mL (≈ 10.4 µM)
104 | CCOC(=O)c1c(C)[nH]c(C)c1C(=O)COC(=O)c1cccnc1OCC | > 56.2 µg/mL
105 | O=C(O)CC1S/C(=N/N=C/c2ccccn2)NC1=O (centres undefined) | > 41.7 µg/mL
106 | Cc1[nH]c2ccccc2c1/C=N/NC(=O)c1ccccc1 | > 41.6 µg/mL
107 | Cc1cc(C(=O)Nc2ccccc2N2CCOCC2)c(C)o1 | 10.3 µg/mL (≈ 34.3 µM)
108 | O=C(O)C(Cc1ccccc1)n1c(=S)[nH]c2ccccc2c1=O (centres undefined) | > 49 µg/mL
109 | Cc1ccc(-c2csc(NC(=O)c3c(C)noc3C)n2)cc1C | 1.7 µg/mL (≈ 5.19 µM)
110 | COc1ccc(OCC(=O)Nc2ccc3c(c2)C(=O)NC3=O)cc1 | 2.4 µg/mL (≈ 7.36 µM)
111 | O=C(CCc1ccc(S(=O)(=O)N2CCOCC2)cc1)OCC(=O)c1ccccc1F | 49.6 µg/mL (≈ 114 µM)
112 | COc1ccc(Br)cc1CN(C)C(=O)C1=CC=CN2CCS(=O)(=O)N=C12 | 43.1 µg/mL (≈ 97.9 µM)
113 | Cc1ccsc1C(=O)NCc1ccc(F)cc1 | > 37.4 µg/mL
114 | Cc1nc(N2CCOCC2)[nH]c(=O)c1C | > 31.4 µg/mL
115 | Cc1ccccc1OCC(=O)NCCCNC(=O)c1ccco1 | 43.9 µg/mL (≈ 139 µM)
116 | Cc1c(C(=O)NCc2ccco2)oc2ccccc12 | 6.3 µg/mL (≈ 24.7 µM)
117 | Cc1cc(=O)[nH]c(SCC(=O)N2CCCC(C)C2)n1 (centres undefined) | > 42.2 µg/mL
118 | COC(=O)[C@H](CCSC)NC(=O)NC1CC1 | > 36.9 µg/mL
119 | Nc1cccc2c1C(=O)N(CCOc1ccccc1F)C2=O | 20.3 µg/mL (≈ 67.6 µM)
